In patent US10906899B2, “Bicyclic fused pyrazole derivatives for the treatment of RSV” (GEORGIA STATE UNIVERSITY RESEARCH FOUNDATION, INC., priority 2016, dated 2021) one finds EC50 data, which are given here for 51 compounds.

The first experiment concerns RSV. As to the kind of experiment: Dose-response counterscreen: luciferase reporter virus infection of BEAS-2B cells (EC50). It counts as cell-based, respiratory syncytial virus (RSV). As to conditions: human respiratory syncytial virus, A series compounds, anti-RSV potency, read-out: Potency Range (EC50 values). In general terms: Counterscreens check selectivity or assay interference.
The EC50 is the concentration at which the effect is half-maximal. Turning to `COc1ccc(Cn2ncc3c2NC(=O)CC3c2ccc(OC)c(OC3CCCC3)c2)c(OC)c1` (stereo not drawn) [AVG-068, 4-(3-(cyclopentyloxy)-4-methoxyphenyl)-1-(2,4-dimethoxybenzyl)-4,5-dihydro-1H-pyrazolo[3,4-b]pyridin-6(7H)-one], the EC50 was in the range of 1000 to 10000 nM.
The same measure, in the same setting: for `COc1ccc(C2CC(=O)Nc3nn(-c4ccccn4)cc32)cc1OC1CCCC1` (stereo not drawn) [AVG-117] the value was 10000 to 20000 nM; for `COc1cc(C2CC(=O)Nc3nn(-c4nc5ccccc5s4)cc32)ccc1OC1CCCC1` (stereo not drawn) [AVG-006b], 1000 to 10000 nM.

The experiment is the same for the next values; noted with them: human respiratory syncytial virus, B series compounds, read-out: Potency Range (EC50 values).
`Cc1c2c(=O)n(-c3nc4ccccc4s3)n(Cc3ccccc3)c2cc(=O)n1CC1CCOC1` (stereo not drawn) [AVG-075]: the EC50 was 1000 to 10000 nM.
For `COc1cccc(Cn2c(C)c3c(=O)n(-c4nc5ccccc5s4)n(Cc4ccccc4)c3cc2=O)n1` [AVG-158], the EC50 fell in the range of 100 to 1000 nM.
The same measure, in the same setting: for `Cc1c2c(=O)n(-c3nc4ccccc4s3)n(Cc3ncco3)c2cc(=O)n1Cc1ccco1` [AVG-124] the value was 1000 to 10000 nM.
The same measure, in the same setting: next, `Cc1c2c(=O)n(-c3ccccn3)n(Cc3ccccc3)c2cc(=O)n1Cc1ccco1` [AVG-035]: 1000 to 10000 nM; `COc1ccc(Cn2c3cc(=O)n(Cc4cccc(OC(C)C)n4)c(C)c3c(=O)n2-c2ccccn2)cc1` [AVG-254]: 100 to 1000 nM.
`Cc1c2c(=O)n(-c3nc4ccccc4s3)n(Cc3ccccc3)c2cc(=O)n1CC1CCOCC1` [AVG-040]: the EC50 fell in the range of 1000 to 10000 nM.
`Cc1c2c(=O)n(-c3nc4ccccc4s3)n(Cc3ccccc3)c2cc(=O)n1Cc1ccccc1Cl` [AVG-076]: the EC50 lay within 10000 to 20000 nM.
Still for that read-out and setting: next, `Cc1c2c(=O)n(-c3ncccn3)n(Cc3ccccc3)c2cc(=O)n1Cc1ccco1` [AVG-105]: more than 20000 nM; `Cc1c2c(=O)n(-c3nc4ccccc4s3)n(Cc3cnco3)c2cc(=O)n1Cc1ccco1` [AVG-126]: 1000 to 10000 nM; `Cc1c2c(=O)n(-c3nc4ccccc4s3)n(Cc3ccccc3)c2cc(=O)n1Cc1ccncn1` [AVG-092]: 1000 to 10000 nM.
On the same count and under the same terms, for `Cc1c2c(=O)n(-c3ccccn3)n(Cc3ccccc3)c2cc(=O)n1Cc1ccc(Cl)c(Cl)n1` [AVG-172] the value was 100 to 1000 nM.
Same read-out and setting: next, `Cc1c2c(=O)n(-c3ccncc3)n(Cc3ccccc3)c2cc(=O)n1Cc1ccco1` [AVG-082]: 1000 to 10000 nM; `Cc1c2c(=O)n(-c3ccccn3)n(Cc3ccccc3)c2cc(=O)n1Cc1cccc(F)c1` [AVG-131]: 100 to 1000 nM; `Cc1c2c(=O)n(-c3ccccc3)n(Cc3ccccc3)c2cc(=O)n1Cc1ccco1` [AVG-080]: 1000 to 10000 nM.
Regarding `Cc1c2c(=O)n(-c3ccncn3)n(Cc3ccccc3)c2cc(=O)n1Cc1ccco1` [AVG-108], the EC50 was in the range of 1000 to 10000 nM.
The same measure, in the same setting: for `Cc1c2c(=O)n(-c3nc4ccccc4s3)n(C)c2cc(=O)n1Cc1ccccn1` [AVG-037] the value was more than 20000 nM; for `COc1cccc(Cn2c3cc(=O)n(Cc4cccc(Cl)n4)c(C)c3c(=O)n2-c2nc3ccccc3s2)c1` [AVG-177], 100 to 1000 nM; for `Cc1c2c(=O)n(-c3nc4ccccc4s3)n(Cc3ccccc3)c2cc(=O)n1Cc1cccc(OCCCN(C)C)n1` [AVG-207], 1000 to 10000 nM.
The same measure, in the same setting: for `Cc1c2c(=O)n(-c3nc4ccccc4s3)n(Cc3ccccc3)c2cc(=O)n1Cc1ccncc1` [AVG-089] the value was 1000 to 10000 nM; for `COc1cccc(Cn2c(C)c3c(=O)n(-c4ccccn4)n(Cc4ccc(OC(C)C)cc4)c3cc2=O)n1` [AVG-253], 100 to 1000 nM.
On the same count and under the same terms, for `CCc1c2c(=O)n(-c3nc4ccccc4s3)n(Cc3ccccc3)c2cc(=O)n1Cc1cccc(Cl)n1` [AVG-165] the value was 1000 to 10000 nM.
As to `Cc1c2c(=O)n(-c3nc4ccccc4s3)n(Cc3ccccc3)c2cc(=O)n1Cc1nccn1C` [AVG-098], the EC50 was 1000 to 10000 nM.
In the case of `Cc1c2c(=O)n(-c3nc4ccc(Cl)cc4s3)n(Cc3ccccc3)c2cc(=O)n1Cc1cccc(Cl)n1` [AVG-185], the 50% effective concentration (EC50) was in the range of 100 to 1000 nM.
The same measure, in the same setting: for `Cc1c2c(=O)n(-c3nc4ccccc4s3)n(Cc3ccccc3)c2cc(=O)n1CC1CCC(=O)N1C` (stereo not drawn) [AVG-212] the value was 10000 to 20000 nM.
Same read-out and setting: for `Cc1c2c(=O)n(-c3nc4ccccc4s3)n(C)c2cc(=O)n1Cc1ccc(Cl)cc1` [AVG-032] the value was more than 20000 nM; for `Cc1nc(-n2c(=O)c3c(C)n(Cc4ccco4)c(=O)cc3n2Cc2ccccc2)sc1C` [AVG-033], 1000 to 10000 nM; for `Cc1c2c(=O)n(-c3nc4ccccc4s3)n(Cc3ccccc3)c2cc(=O)n1Cc1ccnn1C` [AVG-102], 1000 to 10000 nM.
Same read-out and setting: for `Cc1c2c(=O)n(-c3ccccn3)n(Cc3ccccc3)c2cc(=O)n1Cc1nc(Cl)cs1` [AVG-252] the value was 100 to 1000 nM; for `COc1cccc(Cn2c(C)c3c(=O)n(-c4ccccn4)n(Cc4ccccc4)c3cc2=O)n1` [AVG-203], 10 to 100 nM.
For `Cc1c2c(=O)n(-c3nc4ccccc4s3)n(Cc3ccccc3Cl)c2cc(=O)n1Cc1cccc(Cl)n1` [AVG-175], the EC50 is 1000 to 10000 nM.
For the compound `COc1cccc(Cn2c(C)c3c(=O)n(-c4ccccn4)n(Cc4ccccc4)c3cc2=O)c1` [AVG-134], the EC50 fell in the range of 100 to 1000 nM.
As to `Cc1c2c(=O)n(-c3nc4ccccc4s3)n(Cc3ccccc3)c2cc(=O)n1CCN1CCOCC1` [AVG-028], the EC50 was 1000 to 10000 nM.
On the same count and under the same terms, for `Cc1c2c(=O)n(-c3nc4ccccc4s3)n(Cc3ccccc3)c2cc(=O)n1Cc1cccc(OCCN(C)C)n1` [AVG-206] the value was 1000 to 10000 nM; for `Cc1c2c(=O)n(-c3nc4ccccc4s3)n(CC3CCNCC3)c2cc(=O)n1Cc1ccco1` [AVG-026], 1000 to 10000 nM.
Same read-out and setting: for `Cc1c2c(=O)n(-c3nc4ccccc4s3)n(Cc3ccccc3)c2cc(=O)n1Cc1cccc(N2CCOCC2)n1` [AVG-228] the value was 100 to 1000 nM; for `COc1ccccc1Cn1c2cc(=O)n(Cc3cccc(Cl)n3)c(C)c2c(=O)n1-c1nc2ccccc2s1` [AVG-176], 100 to 1000 nM; for `Cc1c2c(=O)n(-c3ccccn3)n(CC3CCOCC3)c2cc(=O)n1Cc1ccc(Cl)cc1` [AVG-079], more than 20000 nM.
Same read-out and setting: for `Cc1c2c(=O)n(-c3nc4ccccc4s3)n(Cc3ccccc3)c2cc(=O)n1Cc1cccnn1` [AVG-091] the value was 1000 to 10000 nM.
For the compound `Cc1c2c(=O)n(-c3ccccn3)n(Cc3ccccc3)c2cc(=O)n1Cc1nccs1` [AVG-239], the EC50 lay in the range of 1000 to 10000 nM.
Still for that read-out and setting: next, `Cc1c2c(=O)n(-c3nc4ccccc4s3)n(Cc3ccccc3)c2cc(=O)n1Cc1ncccc1Cl` [AVG-161]: 1000 to 10000 nM; `Cc1c2c(=O)n(-c3nc4ccccc4s3)n(Cc3ccccc3)c2cc(=O)n1Cc1ccc(Cl)cc1` [AVG-031]: 100 to 1000 nM.
Still for that read-out and setting: for `Cc1c2c(=O)n(-c3nc4ccccc4s3)n(Cc3ccco3)c2cc(=O)n1Cc1ccco1` [AVG-122] the value was 1000 to 10000 nM; for `Cc1c2c(=O)n(-c3nc4ccccc4s3)n(Cc3ccccc3)c2cc(=O)n1C1CCNCC1` [AVG-041], 1000 to 10000 nM.
Same read-out and setting: next, `Cc1c2c(=O)n(-c3nc4cccnc4s3)n(Cc3ccccc3)c2cc(=O)n1Cc1cccc(Cl)n1` [AVG-198]: 100 to 1000 nM; `Cc1c2c(=O)n(-c3nc4ccccc4s3)n(C(C)c3ccccc3)c2cc(=O)n1Cc1ccccn1` (stereo not drawn) [AVG-135]: 10000 to 20000 nM.
`Cc1c2c(=O)n(-c3cc4ccccc4cn3)n(Cc3ccccc3)c2cc(=O)n1Cc1ccco1` [AVG-034]: the EC50 lay in the range of 1000 to 10000 nM.
As to `Cc1c2c(=O)n(-c3nc4ccccc4s3)n(Cc3ccccc3)c2cc(=O)n1C1CCN(C)CC1` [AVG-042], the EC50 lay in the range of 1000 to 10000 nM.
For `Cc1c2c(=O)n(-c3nc4ccccc4s3)n(Cc3ccccc3)c2cc(=O)n1CC1CCNCC1` [AVG-038], the EC50 is more than 20000 nM.
